Experimental data reported in ChEMBL document CHEMBL1201862, “PubChem BioAssay data set” (2004).
Calls of active or inactive are those of the source.

How the values were obtained:
[1] = biological target: Large T antigen (Simian virus 40, UniProt P03070); type: functional, Betapolyomavirus macacae;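 also: Confirmatory-stage PubChem screen for compounds that inhibit SV40 T antigen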
[2] = biological target: Induced myeloid leukemia cell differentiation protein Mcl-1 (Homo sapiens, UniProt Q07820); experiment: MCL1-BIM BH3 interaction inhibitors, dose response, biochemical, fluorescence polarization, BIM-BH3 peptide, 1536-well (AID 2217)
[3] = biological target: Bcl-2-like protein 1 (Homo sapiens, UniProt Q07817); experiment: BCL-XL inhibitors, dose response, selectivity assay for MCL1 inhibitor project, biochemical, fluorescence polarization, 1536-well (AID 2218)
[4] = biological target: T1, Protein Tat (Human immunodeficiency virus type 1 group M subtype B (isolate HXB2)(HIV-1), UniProt P04608); type: functional;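 also: tat binding to TAR RNA read out by fluorescence polarization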
T1 sequence (P04608 whole entry): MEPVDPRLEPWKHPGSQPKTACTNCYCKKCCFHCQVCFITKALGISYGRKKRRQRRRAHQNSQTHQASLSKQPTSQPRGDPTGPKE

[5] = inhibitors of firefly luciferase expression or activity, dose response, H4 neuroglioma cells, luminescence (AID 1990); type: functional, cell-based
[6] = system: Streptococcus sp. 'group A'; experiment: growth inhibition of control SK(-) GAS strain, dose response, counter-screen for streptokinase expression inhibitor project, luminescence, kanamycin, BacTiterGlo, confirmation (AID 1900); type: functional, organism-based
[7] = Luminescence Cell-Based Dose Response HTS to Identify Inhibitors of 5'UTR Stem-Loop Driven Prion Protein mRNA Translation in H4 Neuroglioblastoma Cells. [Related pubchem assays: 1827 (Project Summary), 1813 (Primary HTS)]; type: functional
[8] = inhibitors of SNCA 5'UTR-driven reporter translation, confirmation, H4 neuroglioma cells, luminescence (AID 1988); type: functional, cell-based
[9] = cytotoxicity in HPDE-C7 cells, cell-based, fluorescence, HTS (AID 430); type: functional; conditions: Homo sapiens
[10] = inhibitors of intracellular T. cruzi replication, confirmation, NIH3T3 host cells, beta-gal luminescence (AID 2044); type: functional, cell-based;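 also: intracellular parasites grown in NIH/3T3 mouse fibroblasts as host cells; luminescent beta-galactosidase reporter signal from transgenic T. cruzi replicating inside host cells; inhibitors lower the luminescence signal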
[11] = cytotoxicity in KRAS-transformed pancreatic duct cells, primary screen, cell-based, fluorescence, HTS (AID 431); type: functional; conditions: Homo sapiens;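 also: cell line used: HPDE-C7K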
[12] = growth suppression of PTEN-null colon cells, dose response, cell-based, HCT116 PTEN knockout (AID 1047); type: functional;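 also: HCT116 colon tumor cells with PTEN knocked out; cells exposed to compound for 60 hours before readout; potency for loss of cell viability measured by luminescence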
[13] = cytotoxicity toward NIH3T3 fibroblasts, dose response, counter-screen, cell-based, ATP luminescence, mouse fibroblasts (AID 2010); type: functional;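 also: cells exposed to compound for about 90 hours before reading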
[14] = growth suppression of beta-catenin-knockout colon cells, dose response, cell-based, HCT116, human colon tumor (AID 1045); type: functional;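 also: HCT116 colon tumor cells with beta catenin knocked out; cells exposed to compound for 60 hours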
[15] = system: Streptococcus; experiment: Group A Streptococcus viability loss, dose response, counter-screen for streptokinase expression inhibitor project, luminescence, BacTiterGlo (AID 1915); type: functional, organism-based;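 also: potency for reduction of bacterial viability or growth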
[16] = biological target: T2, Mannose-6-phosphate isomerase (Homo sapiens, UniProt P34949); experiment: human PMI inhibitors, high substrate, primary screen, biochemical, fluorescence intensity, high mannose 6-phosphate (AID 1220)
T2 sequence (P34949 whole entry): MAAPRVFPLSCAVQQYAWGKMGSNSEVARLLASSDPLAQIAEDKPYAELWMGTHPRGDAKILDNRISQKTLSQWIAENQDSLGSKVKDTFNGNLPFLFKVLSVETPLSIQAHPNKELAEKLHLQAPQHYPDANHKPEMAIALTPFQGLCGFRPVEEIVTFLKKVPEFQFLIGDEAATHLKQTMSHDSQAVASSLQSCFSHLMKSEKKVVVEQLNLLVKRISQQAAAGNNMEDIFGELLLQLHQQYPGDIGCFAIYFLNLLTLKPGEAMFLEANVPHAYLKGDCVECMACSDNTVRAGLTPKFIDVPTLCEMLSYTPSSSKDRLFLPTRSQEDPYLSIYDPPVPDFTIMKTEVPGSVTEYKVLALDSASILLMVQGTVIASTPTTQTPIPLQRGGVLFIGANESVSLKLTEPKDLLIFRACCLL

[17] = biological target: T3, Short transient receptor potential channel 4 (Mus musculus, UniProt Q9QUQ5); experiment: mouse TRPC4 channel inhibitors, dose response, cell-based, HEK293 TRPC4/mu-opioid, Fluo-4 calcium (AID 434942); type: functional;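 also: potency of inhibitors blocking the TRPC4 calcium response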
T3 sequence (Q9QUQ5 whole entry): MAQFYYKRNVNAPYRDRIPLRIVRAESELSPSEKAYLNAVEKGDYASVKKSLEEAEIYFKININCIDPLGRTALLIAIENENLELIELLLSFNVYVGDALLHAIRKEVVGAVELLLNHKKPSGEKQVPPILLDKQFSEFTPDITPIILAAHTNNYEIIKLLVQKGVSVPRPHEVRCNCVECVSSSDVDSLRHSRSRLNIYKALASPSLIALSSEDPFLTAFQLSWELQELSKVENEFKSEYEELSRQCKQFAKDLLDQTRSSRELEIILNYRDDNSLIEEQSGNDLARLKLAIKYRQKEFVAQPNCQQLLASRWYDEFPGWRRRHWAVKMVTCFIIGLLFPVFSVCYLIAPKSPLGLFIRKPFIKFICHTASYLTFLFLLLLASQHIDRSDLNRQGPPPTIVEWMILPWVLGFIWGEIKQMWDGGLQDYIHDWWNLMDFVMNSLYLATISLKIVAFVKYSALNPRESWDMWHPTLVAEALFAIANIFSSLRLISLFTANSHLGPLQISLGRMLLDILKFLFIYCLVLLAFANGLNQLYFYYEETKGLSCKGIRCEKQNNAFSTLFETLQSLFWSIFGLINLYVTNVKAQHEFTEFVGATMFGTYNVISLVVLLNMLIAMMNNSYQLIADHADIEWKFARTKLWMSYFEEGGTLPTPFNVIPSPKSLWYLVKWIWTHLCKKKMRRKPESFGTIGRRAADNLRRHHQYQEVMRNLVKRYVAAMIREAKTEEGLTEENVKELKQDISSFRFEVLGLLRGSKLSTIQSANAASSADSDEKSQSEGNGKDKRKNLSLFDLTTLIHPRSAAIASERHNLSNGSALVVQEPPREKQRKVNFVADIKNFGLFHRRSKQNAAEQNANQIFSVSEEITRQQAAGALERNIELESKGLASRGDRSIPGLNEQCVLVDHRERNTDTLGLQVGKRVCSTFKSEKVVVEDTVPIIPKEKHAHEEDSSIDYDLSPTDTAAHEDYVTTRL

[18] = biological target: Nonstructural protein 1 (Influenza A virus, UniProt Q194T2); type: functional, Influenza A virus (A/California/07/2009(H1N1))
[19] = biological target: Cytochrome P450 2C19 (Homo sapiens, UniProt P33261); experiment: Cytochrome panel assay with activity outcomes. Panel member name: p450-cyp2c19 Compounds with AC50 equal or less than 10 uM are considered active; type: functional; conditions: read-out: AC50
[20] = biological target: Heat shock protein HSP 90-alpha (Homo sapiens, UniProt P07900); type: functional, organism-based

Sequence of Cytochrome P450 2C19 (P33261 whole entry): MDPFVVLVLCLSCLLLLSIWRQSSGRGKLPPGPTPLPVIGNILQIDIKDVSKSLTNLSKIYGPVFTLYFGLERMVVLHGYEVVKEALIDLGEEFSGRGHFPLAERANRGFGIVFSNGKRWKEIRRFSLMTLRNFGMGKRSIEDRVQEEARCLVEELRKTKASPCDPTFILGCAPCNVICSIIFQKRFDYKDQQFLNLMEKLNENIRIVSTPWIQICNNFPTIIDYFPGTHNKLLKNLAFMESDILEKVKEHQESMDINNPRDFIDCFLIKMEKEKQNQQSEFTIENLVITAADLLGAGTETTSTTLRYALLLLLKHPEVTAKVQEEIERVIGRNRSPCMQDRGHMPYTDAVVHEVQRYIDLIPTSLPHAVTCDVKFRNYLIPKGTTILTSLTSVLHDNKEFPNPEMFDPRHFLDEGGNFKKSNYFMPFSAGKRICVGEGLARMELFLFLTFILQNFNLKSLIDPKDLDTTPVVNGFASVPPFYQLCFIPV
Sequence of Nonstructural protein 1 (Q194T2 whole entry): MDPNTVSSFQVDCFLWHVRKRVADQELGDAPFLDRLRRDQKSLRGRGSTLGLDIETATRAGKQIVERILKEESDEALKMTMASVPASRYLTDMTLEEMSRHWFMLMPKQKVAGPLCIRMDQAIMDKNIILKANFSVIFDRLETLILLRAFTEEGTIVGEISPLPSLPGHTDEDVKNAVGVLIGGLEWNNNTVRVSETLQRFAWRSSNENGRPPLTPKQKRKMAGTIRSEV
Sequence of Bcl-2-like protein 1 (Q07817 whole entry): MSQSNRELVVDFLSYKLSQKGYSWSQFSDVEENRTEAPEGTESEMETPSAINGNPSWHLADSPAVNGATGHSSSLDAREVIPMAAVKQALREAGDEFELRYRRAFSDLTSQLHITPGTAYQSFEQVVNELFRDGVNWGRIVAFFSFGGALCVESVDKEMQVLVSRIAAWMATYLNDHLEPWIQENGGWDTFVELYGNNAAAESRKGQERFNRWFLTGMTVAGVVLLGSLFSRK
Sequence of Large T antigen (P03070 whole entry): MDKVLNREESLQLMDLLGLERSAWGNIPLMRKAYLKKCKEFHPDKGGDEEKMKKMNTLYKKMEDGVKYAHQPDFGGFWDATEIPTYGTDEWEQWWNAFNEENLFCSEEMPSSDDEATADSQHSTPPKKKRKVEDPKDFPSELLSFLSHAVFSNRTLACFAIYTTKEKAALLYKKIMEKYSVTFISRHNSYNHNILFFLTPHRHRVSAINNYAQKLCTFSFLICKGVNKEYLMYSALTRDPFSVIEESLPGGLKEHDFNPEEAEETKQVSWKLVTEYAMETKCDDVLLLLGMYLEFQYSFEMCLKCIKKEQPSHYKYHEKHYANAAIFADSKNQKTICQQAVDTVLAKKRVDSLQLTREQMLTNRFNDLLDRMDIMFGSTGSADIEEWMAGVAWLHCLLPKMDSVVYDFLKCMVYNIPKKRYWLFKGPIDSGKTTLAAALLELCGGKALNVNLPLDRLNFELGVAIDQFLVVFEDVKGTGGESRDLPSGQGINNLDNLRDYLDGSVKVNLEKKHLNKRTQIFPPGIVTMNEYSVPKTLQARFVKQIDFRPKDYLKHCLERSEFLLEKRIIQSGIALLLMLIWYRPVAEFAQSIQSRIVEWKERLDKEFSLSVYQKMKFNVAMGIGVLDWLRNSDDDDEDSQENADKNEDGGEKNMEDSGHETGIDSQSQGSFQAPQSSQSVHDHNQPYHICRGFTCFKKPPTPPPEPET
Sequence of Induced myeloid leukemia cell differentiation protein Mcl-1 (Q07820 whole entry): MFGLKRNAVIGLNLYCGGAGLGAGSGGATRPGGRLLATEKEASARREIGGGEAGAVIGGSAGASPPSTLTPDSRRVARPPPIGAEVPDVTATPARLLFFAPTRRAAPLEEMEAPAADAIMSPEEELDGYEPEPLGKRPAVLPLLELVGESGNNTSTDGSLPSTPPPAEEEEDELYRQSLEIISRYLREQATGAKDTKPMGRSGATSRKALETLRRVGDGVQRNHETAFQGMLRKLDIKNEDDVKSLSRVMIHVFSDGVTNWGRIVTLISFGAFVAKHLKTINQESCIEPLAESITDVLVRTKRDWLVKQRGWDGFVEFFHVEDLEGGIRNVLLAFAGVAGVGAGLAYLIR

Row | Structure (SMILES) | IC50 [1] | IC50 [2] | IC50 [3] | IC50 [4] | EC50 [5] | EC50 [6] | EC50 [7] | EC50 [8] | EC50 [9] | EC50 [10] | EC50 [11] | EC50 [12] | EC50 [13] | EC50 [14] | EC50 [15] | IC50 [16] | EC50 [17] | IC50 [18] | AC50 [19] | AC50 [20]
1 | O=C1NC(=O)N(c2cccc(Cl)c2)C(=O)/C1=C\c1ccc(Sc2nc3ccccc3[nH]2)o1 | 66.2 µM (active) | 8.64 µM (active) | > 12.1 µM (not active) | > 100 µM (active) |  |  |  |  |  |  |  |  |  |  |  |  |  |  |  | 
2 | Oc1c(CN2CCCCC2)cc(Br)c2cccnc12 |  |  |  |  | 5.98 µM (active) | 3.42 µM (active) | 1.63 µM (active) | 4.28 µM (active) | 7.75 µM (active) | 1.16 µM (active) | 10.4 µM (active) | 1.95 µM (active) | 6.38 µM (active) | 1.64 µM (active) | 10.7 µM (active) | 15 µM (active) | 4.22 µM (active) | 3.55 µM (active) | 39.8 µM (inconclusive) | 6.04 µM (active)
